Results on 17 compounds are retold here after patent US12552767B2, “3-heteroaryl pyrrolidine and piperidine orexin receptor agonists” (Merck Sharp & Dohme LLC, priority 2020, dated 2026).

Usually EC50 stands for the concentration needed to bring the measured effect to its halfway point.

For this test, the target named is T1, human OX2R (Homo sapiens, UniProt O43614).
T1 construct: expressed in transfected cells; host or cells: CHO (Chinese hamster ovary) cells, grown under G418 selection
T1 sequence (O43614 1-444): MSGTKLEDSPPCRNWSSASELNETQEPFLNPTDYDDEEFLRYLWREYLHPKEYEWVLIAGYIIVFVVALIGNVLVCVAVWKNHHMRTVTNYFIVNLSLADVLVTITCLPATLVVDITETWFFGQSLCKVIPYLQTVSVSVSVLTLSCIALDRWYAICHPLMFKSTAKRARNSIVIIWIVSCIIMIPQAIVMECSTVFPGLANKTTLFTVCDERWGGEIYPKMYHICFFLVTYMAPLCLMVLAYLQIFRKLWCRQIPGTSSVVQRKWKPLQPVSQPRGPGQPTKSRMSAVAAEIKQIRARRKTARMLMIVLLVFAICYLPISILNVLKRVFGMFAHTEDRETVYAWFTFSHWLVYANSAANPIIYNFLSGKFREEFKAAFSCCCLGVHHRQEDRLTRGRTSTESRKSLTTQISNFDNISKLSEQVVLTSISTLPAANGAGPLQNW
The experiment in a line: IP-One (IPOne) orexin receptor agonist assay in CHO cells expressing human OX2R. It counts as cell-based. The note with it: for EC50: CHO cells expressing human OX2R, IP-One IP-1 detection, 2 hours incubation, four parameter logistic fit, read-out: OX2R Potency, EC50; for % of reference agonist maximal effect: human OX2R, percentage of sample raw value/mean max effect (reference compound at 1 uM with 100% activity). An excerpt: The utility of the compounds in accordance with the present invention as orexin receptor OX1R and/or OX2R agonists may be readily determined without undue experimentation by methodology well known in the art. Both the OX1R and/or OX2R G-coupled protein receptors (GPCRs) couple through the Gαq signaling pathway, which ultimately promotes calcium mobilization via inositol triphosphate (IP3) production. The half-life of IP-3 is relatively short, being rapidly metabolized to inositol monophosphate (IP-1), which can be readily detected using a commercially available assay kit (IP-One; Cisbio; cat #621PAPEC) coupled with a cell line expressing the target receptor(s) of interest. The utility of the compounds in accordance with the present invention as orexin receptor OX1R and/or OX2R agonists may be determined utilizing this assay.
In a typical experiment, the OX1 and OX2 receptor agonist activity is determined in accordance with the following general experimental method. Chinese hamster ovary (CHO) cells expressing human OX1R and/or the human OX2R were grown in Iscove's modified DMEM containing glutaMAX™, 1% G418, 100 U/mL penicillin, 100 μg/mL streptomycin and 10% heat-inactivated qualified fetal bovine serum (FBS). The OX2R cells were seeded at 10,000 cells/well/50 μL and the OX1R cells were seeded at 20,000 cells/well/50 μL into 384-well white tissue culture plates (Greiner; cat #781080). All cell/media reagents were from GIBCO-Invitrogen Corp. The seeded cell plate(s) were incubated at 37° C. with 5% CO2 and 85% humidity for 20-24 hours. On the day of the assay, assay-ready compound plates were prepared using an acoustic liquid handler (ECHO; Labcyte), which dispensed sufficient volume of test compound stock (10 mM in DMSO) or 100% DMSO to prepare 10 point, ½-log dilutions in a final volume of 202.5 nL/well in all test wells of a 384-well diamond plate (Labcyte). Following completion of assay-ready plates, importantly, the next three steps were performed with minimal delay: 1) 20 μl of 1× stimulation buffer was added to the compound plate using a Multidrop Combi (small cassette, Thermo Fisher Scientific cat #24073290); 2) culture medium was removed from the cell plate using the Bluewasher plate washer (gentle spin; BlueCatBio); 3) 14 μl of compound/stimulation buffer mixture was added to the cell plate using a Bravo liquid handler (Agilent) prior to incubating cell plates at 37° C. with 5% CO2 and 85% humidity for 1 or 2 hours (OX1R and OX2R, respectively). During this incubation, IP-one detection reagents were prepared (38:1:1 lysis buffer:D2:AB-cryptate reagents). Six μL of mixed detection reagents were added to the cell plate using a Multidrop Combi (small cassette, Thermo Fisher Scientific cat #24073290) and incubated 60 minutes at room temperature in the dark. Fluorescence signal was detected using an Envision plate reader (Perkin Elmer) [LANCE/DELFIA Dual Enh (Em: APC 665; Ex: Cy5 620)].
For each compound, data were fit to a four parameter logistic fit (ActivityBase software) and the EC50 was reported as the inflection point of the resulting curve. Percent effect for each test compound was determined as the percentage of sample raw value/mean max effect, where the mean max effect was derived from the mean raw value of 32 control wells per assay plate (using Orexin A (cat #003-30) at 1 μM for human OX1R and a reference compound at 1 uM with 100% activity previously established by comparison to Orexin A for human OX2R). The intrinsic orexin receptor agonist activity of a compound which may be used in the present invention may be determined by these assays.

For `COC(=O)N1CCC[C@H](c2[nH]ncc2C)[C@@H]1CO[C@H]1CC[C@@H](c2ccccc2)CC1` (relative stereo) [Example 23, methyl (CIS)-3-(4-methyl-1H-pyrazol-5-yl)-2-((((CIS)-4-phenylcyclohexyl)oxy)methyl)piperidine-1-carboxylate], the EC50 was 211 nM and the “% of reference agonist maximal effect” value is given as 98.6%.
The like results for `Cc1cn[nH]c1[C@H]1CCCN(C(=O)OCC(F)F)[C@H]1CO[C@H]1CC[C@@H](c2ccccc2)CC1` (relative stereo) [Example 24, 2,2-difluoroethyl (CIS)-3-(4-methyl-1H-pyrazol-5-yl)-2-((((CIS)-4-phenylcyclohexyl)oxy)methyl)piperidine-1-carboxylate] were, in that order, 348 nM and 100.4%.
In the same order, the values of `COC(=O)N1CCC[C@H](c2[nH]ncc2C(F)(F)F)[C@@H]1CO[C@H]1CC[C@@H](c2ccccc2)CC1` (relative stereo) [Example 25, methyl (CIS)-2-((((CIS)-4-phenylcyclohexyl)oxy)methyl)-3-(4-(trifluoromethyl)-1H-pyrazol-5-yl)piperidine-1-carboxylate] are 879 nM and 92.8%.
In the same order, the values of `COC(=O)N1CCC[C@H](c2ncn[nH]2)[C@@H]1CO[C@H]1CC[C@@H](c2ccccc2)CC1` (relative stereo) [Example 26, methyl (CIS)-2-((((CIS)-4-phenylcyclohexyl)oxy)methyl)-3-(1H-1,2,4-triazol-5-yl)piperidine-1-carboxylate] are 2430 nM and 83.6%.
Turning to `CCNC(=O)N1CCC[C@H](c2ccn(C)n2)[C@@H]1CO[C@H]1CC[C@@H](c2ccccc2)CC1` (relative stereo) [Example 27, (CIS)-N-ethyl-3-(1-methyl-1H-pyrazol-3-yl)-2-((((CIS)-4-phenylcyclohexyl)oxy)-methyl)piperidine-1-carboxamide], the EC50 is 3510 nM and the “% of reference agonist maximal effect” value is 82.5%.
In the same order, the values of `CCNC(=O)N1CC[C@H](c2cc[nH]n2)[C@@H]1CO[C@H]1CC[C@@H](c2ccccc2)CC1` (relative stereo) [Example 28, (CIS)-N-ethyl-2-((((CIS)-4-phenylcyclohexyl)ox)methyl)-3-(1H-pyrazol-3-yl)pyrrolidine-1-carboxamide] are 5960 nM and 22.9%.
Turning to `O=C(OCCF)N1CCCC(c2ccn[nH]2)C1CO[C@H]1CC[C@@H](c2c(F)ccc(F)c2F)CC1` (relative stereo) [Example 30, 2-Fluoroethyl 3-(1H-pyrazol-5-yl)-2-((((CIS)-4-(2,3,6-trifluorophenyl)cyclohexyl)oxy)methyl)-piperidine-1-carboxylate], the EC50 is 2920 nM and the “% of reference agonist maximal effect” value is listed as 87.6%.
`O=C(OCC(F)(F)F)N1CCCC(c2ccn[nH]2)C1CO[C@H]1CC[C@@H](c2c(F)ccc(F)c2F)CC1` (relative stereo) [Example 31, 2,2,2-Trifluoroethyl 3-(1H-pyrazol-5-yl)-2-((((CIS)-4-(2,3,6-trifluorophenyl)cyclohexyl)-oxy)methyl)piperidine-1-carboxylate]: the EC50 was 7440 nM and the “% of reference agonist maximal effect” value is 72.7%.
Turning to `O=C(CO)N1CCCC(c2ccn[nH]2)C1CO[C@H]1CC[C@@H](c2c(F)ccc(F)c2F)CC1` (relative stereo) [Example 32, 1-(3-(1H-Pyrazol-5-yl)-2-((((CIS)-4-(2,3,6-trifluorophenyl)cyclohexyl)oxy)methyl)piperidin-1-yl)-2-hydroxyethan-1-one], the EC50 stood at 3730 nM and the “% of reference agonist maximal effect” value is reported as 86.3%.
`COC(=O)N1CCC[C@H](c2n[nH]cc2I)[C@@H]1CO[C@H]1CC[C@@H](c2ccccc2)CC1` (relative stereo) [Example 42, Methyl cis-3-(4-iodo-1H-pyrazol-3-yl)-2-((((CIS)-4-phenylcyclohexyl)oxy)methyl)piperidine-1-carboxylate]: the EC50 is 41.2 nM and the “% of reference agonist maximal effect” value was 100.8%.
The like results for `COCc1c[nH]nc1[C@H]1CCCN(C(=O)OC)[C@H]1CO[C@H]1CC[C@@H](c2ccccc2)CC1` (relative stereo) [Example 57, Methyl cis-3-(4-(methoxymethyl)-1H-pyrazol-3-yl)-2-((((CIS)-4-phenylcyclohexyl)oxy)methyl)-piperidine-1-carboxylate] were, in that order, 351 nM and 99.6%.
For `COC(=O)N1CCC[C@H](c2cccc(O)n2)[C@@H]1CO[C@H]1CC[C@@H](c2ccccc2)CC1` (relative stereo) [Example 64, Methyl (CIS)-3-(6-hydroxypyridin-2-yl)-2-((((CIS)-4-phenylcyclohexyl)oxy)methyl)piperidine-1-carboxylate], the EC50 amounted to 3060 nM and the “% of reference agonist maximal effect” value turned out to be 68.1%.
For the compound `COC(=O)N1CCC[C@@H](c2csc(O)n2)[C@H]1CO[C@H]1CC[C@@H](c2ccccc2)CC1` (relative stereo) [Example 65], the EC50 turned out to be 174 nM and the “% of reference agonist maximal effect” value was 98.1%.
In the same order, the values of `COC(=O)N1CCC[C@H](c2nc(O)ccc2C)[C@@H]1CO[C@H]1CC[C@@H](c2ccccc2)CC1` (relative stereo) [Example 66, methyl (CIS)-3-(6-hydroxy-3-methylpyridin-2-yl)-2-((((CIS)-4-phenylcyclohexyl)oxy)methyl)piperidine-1-carboxylate] are 808 nM and 98.8%.
In the same order, the values of `C[C@@H]1C[C@H]1C(=O)N1CCC[C@H](c2cc[nH]n2)[C@@H]1CO[C@H]1CC[C@@H](c2ccccc2)CC1` (relative stereo) [Example 70, ((TRANS)-2-methylcyclopropyl)((CIS)-2-((((CIS)-4-phenylcyclohexyl)oxy)methyl)-3-(1H-pyrazol-3-yl)piperidin-1-yl)methanone] are 292 nM and 100.0%.
As to `CC(C)C(=O)N1CCC[C@H](c2cc[nH]n2)[C@@H]1CO[C@H]1CC[C@@H](C(C)C)CC1` (relative stereo) [Example 73, 1-((CIS)-2-((((CIS)-4-isopropylcyclohexyl)oxy)methyl)-3-(1H-pyrazol-3-yl)piperidin-1-yl)-2-methylpropan-1-one], the EC50 was 3220 nM and the “% of reference agonist maximal effect” value is 79.3%.
The like results for `O=C(CC1COC1)N1CCC[C@H](c2cc[nH]n2)[C@@H]1CO[C@H]1CC[C@@H](c2ccccc2)CC1` (relative stereo) [Example 74, 2-(oxetan-3-yl)-1-((CIS)-2-((((CIS)-4-phenylcyclohexyl)oxy)methyl)-3-(1H-pyrazol-3-yl)piperidin-1-yl)ethan-1-one] were, in that order, 3280 nM and 94.3%.
